Where two headings read alike, the source gives them in different places. *1 amine or outer side, *2 acyl side, *3 side chain or, on linkers, in order; H or OH if unused. Where a SMILES comes first, the peptide text is derived from it. Bridges are numbered along the chain shown (N, C = ends). [ ]: non-standard residue; d: D form. The star is where a group is joined. X1 = COc1cc(C[C@H](N[*:1])C(=O)[*:2])ccc1C(=O)NO; NMePhe(3-Cl) = CN[C@@H](Cc1cccc(Cl)c1)C(=O)O; X4 = O=C(C(CCc1noc(=O)[nH]1)N[*:1])[*:2]; Ethyl(2-morpholino) = C1CN(CC*)CCO1; NMeF = CN[C@@H](Cc1ccccc1)C(=O)O; NMeGABA = CN(CCCC(=O)[*:2])[*:1]; NMeI = CC[C@H](C)[C@H](NC)C(=O)O; NMeD = CN[C@@H](CC(=O)O)C(=O)O; CH2CH(OH)CF3 = OC(C*)C(F)(F)F; NMeL = CN[C@@H](CC(C)C)C(=O)O; NMeV = CN[C@H](C(=O)O)C(C)C; NMeAbu = CC[C@H](NC)C(=O)O; NMeA = CN[C@@H](C)C(=O)O; Piperidide = C1CCN(*)CC1; dNMeA = CN[C@H](C)C(=O)O; CH2CONHMe = CNC(=O)C*; Me2NCH2CH2 = CN(C)CC*; NBuGly = CCCCNCC(=O)O; NPrGly = CCCNCC(=O)O; Sar = CNCC(=O)O; tBu = CC(C)(C)*
How the values were obtained:
in vitro = details: human, Caco-2, Caco-2 (cm/sec)
[1] = Membrane permeability test of cyclic peptides (Caco-2, modified/improved method of WO 2018/124162); details: human
[2] = Caco-2, Caco-2 (cm/sec), Table 36, Papp, sequences having Papp ≥ 1.0 × 10^−6 at ARC = 3
[3] = Caco-2, Caco-2, Papp, membrane permeability, cyclic peptides comprising MeAbu(pip-4-F2), MeAbu(Mor), Ser(Et-2-Mor), MeAbu(pip-3-F2) or Abu(5-Oxo-Odz) (Table 29)

Structure (SMILES): CCCCN1CC(=O)N(C)[C@@H](CC(C)C)C(=O)N[C@@H](COC(C)(C)C)C(=O)N(C)[C@@H]([C@@H](C)CC)C(=O)N(C)[C@@H](CC(C)C)C(=O)N[C@H](C(=O)N2CCCCC2)CC(=O)N[C@H](C)C(=O)N(C)[C@@H](Cc2ccccc2)C(=O)N[C@@H](Cc2ccc(C(=O)NO)c(OC)c2)C(=O)N(C)[C@@H](CC(C)C)C(=O)N[C@@H]([C@@H](C)O)C1=O [AP258] ([dA][NMeF][X1][NMeL]T[NBuGly][NMeL]S(tBu)[NMeI][NMeL]D-Piperidide; lactam N-11)
- Caco-2 (Caco-2; human): 2e-08 cm/s
- Papp (in vitro): 0.03 ×10⁻⁶ cm/s

Structure (SMILES): CCCCN1CC(=O)N(C)[C@@H](CC(C)C)C(=O)N[C@@H](COC(C)(C)C)C(=O)N(C)[C@@H](Cc2ccccc2)C(=O)N(C)[C@@H](CC(C)C)C(=O)N[C@H](C(=O)N2CCCCC2)CC(=O)N[C@H](C(C)C)C(=O)N(C)[C@@H](Cc2ccccc2)C(=O)N[C@@H](COCC(O)C(F)(F)F)C(=O)N(C)[C@@H](CC(C)C)C(=O)N[C@@H]([C@@H](C)O)C1=O (stereo partly drawn) [Compound C01] ([dV][NMeF]S(CH2CH(OH)CF3)[NMeL]T[NBuGly][NMeL]S(tBu)[NMeF][NMeL]D-Piperidide; lactam N-11)
- Caco-2 (membrane permeability) (Caco-2; human): 0.15 ×10⁻⁶ cm/s

Structure (SMILES): CCCCN1CC(=O)N(C)[C@@H](CC(C)C)C(=O)N[C@@H](COC(C)(C)C)C(=O)N(C)[C@@H](Cc2ccccc2)C(=O)N(C)[C@@H](CC(C)C)C(=O)N[C@H](C(=O)N2CCCCC2)CC(=O)N[C@H](C(C)C)C(=O)N(C)[C@@H](Cc2ccccc2)C(=O)N[C@@H](COCC(O)C(F)(F)F)C(=O)N(C)[C@@H](CC(C)C)C(=O)N[C@@H]([C@@H](C)O)C1=O (stereo partly drawn) [Compound D01] ([dV][NMeF]S(CH2CH(OH)CF3)[NMeL]T[NBuGly][NMeL]S(tBu)[NMeF][NMeL]D-Piperidide; lactam N-11)
- Caco-2 (membrane permeability) (Caco-2; human): 0.07 ×10⁻⁶ cm/s

Structure (SMILES): CCCN1CC(=O)N(C)[C@@H](CC(C)C)C(=O)N[C@@H](CC(C)C)C(=O)N(C)[C@@H](Cc2ccccc2)C(=O)N(C)[C@@H](CC(C)C)C(=O)N[C@H](C(=O)N2CCCCC2)CC(=O)N[C@H](CC(C)C)C(=O)N(C)[C@@H](Cc2ccccc2)C(=O)N[C@@H](COCC(=O)NC)C(=O)N(C)[C@@H](CC(C)C)C(=O)N[C@@H]([C@@H](C)O)C1=O [Compound I01] ([dL][NMeF]S(CH2CONHMe)[NMeL]T[NPrGly][NMeL]L[NMeF][NMeL]D-Piperidide; lactam N-11)
- Papp ([1]; Caco-2, Caco-2 (membrane permeability), Table 12, cyclic peptides containing Ser(NMe-Aca) (I) or Gln(Me) (J)): 0.27 ×10⁻⁶ cm/s

Structure (SMILES): CC(C)C[C@@H]1NC(=O)[C@H](Cc2ccccc2)N(C)C(=O)[C@H](Cc2ccccc2)N(C)C(=O)[C@H](COCCN(C)C)NC(=O)[C@H](CC(C)C)N(C)C(=O)CCCN(C)C(=O)C[C@@H](C(=O)N2CCCCC2)NC(=O)[C@H](CC(C)C)N(C)C(=O)[C@H](CC(C)C)N(C)C(=O)[C@H]([C@@H](C)O)NC(=O)[C@H](CC(C)C)N(C)C1=O [pd55] ([NMeGABA][NMeL]S(Me2NCH2CH2)[NMeF][NMeF]L[NMeL]T[NMeL][NMeL]D-Piperidide; lactam N-11)
- Papp ([1]; Caco-2, Caco-2, Papp, membrane permeability, cyclic peptides comprising Ser(Et-2-NMe2) or Gln(Ms) (Table 27)): 0.1 ×10⁻⁶ cm/s

Structure (SMILES): CC(C)C[C@H]1C(=O)N[C@@H]([C@@H](C)O)C(=O)N(C)CC(=O)N(C)[C@@H](C(C)C)C(=O)N[C@@H](Cc2ccccc2)C(=O)N(C)[C@@H](Cc2cccc(Cl)c2)C(=O)N(C)[C@@H](CC(C)C)C(=O)N(C)[C@H](C(=O)N2CCCCC2)CC(=O)N2CCC[C@H]2C(=O)N[C@@H](Cc2ccccc2)C(=O)N[C@@H](COC(C)(C)C)C(=O)N1C [pd162] (PFS(tBu)[NMeL]T[Sar][NMeV]F[NMePhe(3-Cl)][NMeL][NMeD]-Piperidide; lactam N-11)
- Caco-2 (Caco-2): 1.2e-06 cm/s
- Papp (in vitro): 1.2 ×10⁻⁶ cm/s

Structure (SMILES): CC(C)C[C@H]1C(=O)N[C@@H]([C@@H](C)O)C(=O)N(C)CC(=O)N(C)[C@@H](C(C)C)C(=O)N[C@@H](Cc2ccccc2)C(=O)N(C)[C@@H](Cc2cccc(Cl)c2)C(=O)N(C)[C@@H](CC(C)C)C(=O)N(C)[C@H](C(=O)N2CCCCC2)CC(=O)N2CCC[C@@H]2C(=O)N[C@@H](Cc2ccccc2)C(=O)N[C@@H](COC(C)(C)C)C(=O)N1C [pd163] ([dP]FS(tBu)[NMeL]T[Sar][NMeV]F[NMePhe(3-Cl)][NMeL][NMeD]-Piperidide; lactam N-11)
- Caco-2 (Caco-2): 1.7e-06 cm/s
- Papp (in vitro): 1.7 ×10⁻⁶ cm/s

Structure (SMILES): CC[C@H](C)[C@@H]1NC(=O)[C@H](CC(C)C)N(C)C(=O)[C@H](C)N(C)C(=O)[C@H]([C@@H](C)O)NC(=O)[C@H](Cc2ccccc2)N(C)C(=O)[C@H](C)N(C)C(=O)[C@@H](C)N(C)C(=O)C[C@@H](C(=O)N(C)[C@@H](Cc2ccccc2)C(=O)N(C)[C@@H](Cc2ccccc2)C(=O)N[C@@H](C)C(=O)N2CCCCC2)NC(=O)[C@H](C(C)C)N(C)C(=O)[C@H](CC(C)C)N(C)C1=O [pd201] ([dNMeA][NMeA][NMeF]T[NMeA][NMeL]I[NMeL][NMeV]D[NMeF][NMeF]A-Piperidide; lactam N-10)
- Papp [1, 2]: 2.3 ×10⁻⁶ cm/s

Structure (SMILES): CC[C@H](C)[C@@H]1NC(=O)[C@H](Cc2ccccc2)N(C)C(=O)CN(C)C(=O)C[C@@H](C(=O)N2CCCCC2)NC(=O)[C@H](C(C)C)N(C)C(=O)[C@H](COC(C)(C)C)NC(=O)[C@H](CC(C)C)N(C)C(=O)[C@H](Cc2ccccc2)N(C)C(=O)CN(C)C(=O)[C@H]([C@@H](C)O)NC(=O)[C@H](Cc2ccccc2)N(C)C1=O [pd205] ([Sar][NMeF]I[NMeF]T[Sar][NMeF][NMeL]S(tBu)[NMeV]D-Piperidide; lactam N-11)
- Papp [1, 2]: 1.8 ×10⁻⁶ cm/s

Structure (SMILES): CC(C)C[C@@H]1NC(=O)[C@H](CC(C)C)N(C)C(=O)[C@H](C)N(C)C(=O)C[C@@H](C(=O)N2CCCCC2)NC(=O)[C@H](CC(C)C)N(C)C(=O)[C@H](Cc2ccccc2)N(C)C(=O)[C@H](Cc2ccccc2)N(C)C(=O)[C@H]([C@@H](C)O)NC(=O)[C@H](Cc2ccccc2)N(C)C1=O [pd211] ([NMeA][NMeL]L[NMeF]T[NMeF][NMeF][NMeL]D-Piperidide; lactam N-9)
- Caco-2 (Caco-2; human): 1.4e-05 cm/s

Structure (SMILES): CC[C@H](C)[C@@H]1NC(=O)[C@@H](C)N(C)C(=O)C[C@@H](C(=O)N(C)[C@@H](Cc2ccccc2)C(=O)N[C@@H](C)C(=O)N2CCCCC2)NC(=O)[C@H](Cc2ccccc2)N(C)C(=O)CN(C)C(=O)[C@H]([C@@H](C)O)NC(=O)[C@H](C)N(C)C(=O)[C@H](C(C)C)N(C)C(=O)[C@H](Cc2ccccc2)NC(=O)[C@H](CC(C)C)N(C)C(=O)[C@H](CC(C)C)N(C)C1=O [pd222] ([dNMeA]I[NMeL][NMeL]F[NMeV][NMeA]T[Sar][NMeF]D[NMeF]A-Piperidide; lactam N-11)
- Papp [1, 2]: 1.1 ×10⁻⁶ cm/s

Structure (SMILES): CC[C@H](C)[C@@H]1NC(=O)[C@H](CC(C)C)N(C)C(=O)CCCN(C)C(=O)C[C@@H](C(=O)N2CCCCC2)NC(=O)[C@H](CC(C)C)N(C)C(=O)[C@H](CC(C)C)N(C)C(=O)[C@H](COCCN2CCOCC2)NC(=O)[C@H](CC(C)C)N(C)C(=O)[C@H](COC(C)(C)C)NC(=O)[C@H](CC)N(C)C(=O)[C@H](Cc2ccccc2)N(C)C1=O [pd485] ([NMeGABA][NMeL]I[NMeF][NMeAbu]S(tBu)[NMeL]S(Ethyl(2-morpholino))[NMeL][NMeL]D-Piperidide; lactam N-11)
- Papp [1, 3]: 1.2 ×10⁻⁶ cm/s

Structure (SMILES): CCCCN1CC(=O)N(C)[C@@H](CC(C)C)C(=O)N[C@H](C(=O)N2CCCCC2)CC(=O)N(C)[C@@H](CC)C(=O)N[C@@H](CC(C)C)C(=O)N(C)[C@@H](CC(C)C)C(=O)N(C)[C@@H](Cc2ccccc2)C(=O)NC(CCc2noc(=O)[nH]2)C(=O)N(C)[C@@H](CC(C)C)C(=O)N(C)[C@@H](CC(C)C)C(=O)N[C@@H]([C@@H](C)O)C1=O (stereo partly drawn) [pd487] ([NMeAbu]L[NMeL][NMeF][X4][NMeL][NMeL]T[NBuGly][NMeL]D-Piperidide; lactam N-11)
- Papp [1, 3]: 2.2 ×10⁻⁶ cm/s

From US20230096766A1, “AMINO ACID HAVING FUNCTIONAL GROUP CAPABLE OF INTERMOLECULAR HYDROGEN BONDING, PEPTIDE COMPOUND CONTAINING SAME AND METHOD FOR PRODUCTION THEREOF” (Chugai Seiyaku Kabushiki Kaisha, priority 2018, published 2023)
